Reference: the NIST ThermoML archive (doi:10.1016/j.jct.2018.09.027)
Numbers after ± are expanded uncertainties.

Settings: Crystal; for vapor or sublimation pressure: Calculated from knudsen effusion weight loss

O=C(O)c1cc(O)c(O)c(O)c1 [3,4,5-trihydroxybenzoic acid]
Settings | Normal melting temperature [°C] | vapor or sublimation pressure [kPa]
432.88 K | – | 9.61e-05 ± 2e-05
434.44 K | – | 0.0001197 ± 2e-05
436.46 K | – | 0.0001349 ± 2.1e-05
438.62 K | – | 0.0001688 ± 2.1e-05
440.5 K | – | 0.0001779 ± 2.1e-05
442.58 K | – | 0.0002341 ± 2.2e-05
444.57 K | – | 0.000257 ± 2.2e-05
446.54 K | – | 0.000313 ± 2.3e-05
448.7 K | – | 0.0003927 ± 2.4e-05
450.78 K | – | 0.0004674 ± 2.6e-05
452.6 K | – | 0.0005635 ± 2.8e-05
454.63 K | – | 0.0006284 ± 3e-05
456.47 K | – | 0.0008057 ± 3.5e-05
458.78 K | – | 0.0009376 ± 3.9e-05
DTA | 263.5 ± 0.7 | –
